Marks after values point to notes of the source that are not given here.
Assays:
BCRP = molecular target: T1, BCRP (Homo sapiens, UniProt Q9UNQ0); test: Inhibition of Hoechst 33342 efflux in MDCK-BCRP cells; type: cell-based; details: for EC50: Hoechst 33342, MDCK-BCRP cells, NA: not active; for BCRP, percentage of the effect: at a concentration of 100 μM, MDCK-BCRP cells
T1 construct: expressed in transfected cells; host or cells: MDCK-BCRP (Madin-Darby Canine Kidney cells, gift of Prof. P. Borst, NKI-AVL)
T1 sequence (Q9UNQ0 1-655): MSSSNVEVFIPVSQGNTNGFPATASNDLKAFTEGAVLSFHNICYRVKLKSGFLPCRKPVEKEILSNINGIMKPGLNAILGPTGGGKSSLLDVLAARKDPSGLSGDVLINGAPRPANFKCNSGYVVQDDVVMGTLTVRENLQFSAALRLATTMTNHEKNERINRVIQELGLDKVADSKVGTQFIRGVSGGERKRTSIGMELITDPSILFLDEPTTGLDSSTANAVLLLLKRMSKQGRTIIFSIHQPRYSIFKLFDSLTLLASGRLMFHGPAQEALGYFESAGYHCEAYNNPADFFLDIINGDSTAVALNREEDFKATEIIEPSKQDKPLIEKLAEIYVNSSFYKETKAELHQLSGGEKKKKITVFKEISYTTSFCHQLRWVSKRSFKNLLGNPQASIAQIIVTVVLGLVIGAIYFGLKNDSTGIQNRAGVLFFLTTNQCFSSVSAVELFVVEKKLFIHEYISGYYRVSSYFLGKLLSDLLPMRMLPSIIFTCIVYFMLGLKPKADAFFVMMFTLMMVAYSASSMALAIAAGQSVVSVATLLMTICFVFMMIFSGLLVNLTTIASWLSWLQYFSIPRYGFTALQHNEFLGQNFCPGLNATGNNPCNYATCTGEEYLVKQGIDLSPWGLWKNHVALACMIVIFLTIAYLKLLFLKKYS
Protocol: These experiments were carried out as described by Teodori et al.[34]. Each cell line (30 000 cells per well) was seeded into black CulturePlate 96/wells plate with 100 µL medium and allowed to become confluent overnight. 100 µL of test compounds were solubilised in culture medium and added to monolayers, with final concentrations ranging from 1 to 100 µM. 96/Wells plate was incubated for 30 min in a humidified atmosphere 5% CO2 at 37 °C. Hoechst 33342 was added in 100 µl of phosphate-buffered saline (PBS) to yield a final concentration of 8 µM and plate was incubated for 30 min in a humidified atmosphere 5% CO2 at 37 °C. The supernatants were drained, and the cells were fixed for 20 min under light protection using 100 µL per well of a 4% PFA solution. Each well was washed three times with ice cold PBS. Saline buffer was added to each well and the plate was read with Victor3 (PerkinElmer) at excitation and emission wavelengths of 340/35 nm and 485/20 nm, respectively. In these experimental conditions, Hoechst 33342 accumulation in the absence and in the presence of tested compounds was evaluated and fluorescence basal level was estimated with untreated cells. In treated wells, the increase of fluorescence with respect to basal level was measured. EC50 values were determined by fitting the fluorescence increase percentage versus log[dose]. […]

P-gp = molecular target: T2, P-gp (Homo sapiens, UniProt P08183); test: Inhibition of Calcein-AM transport in MDCK-MDR1 cells; type: cell-based; details: for EC50: Calcein-AM, MDCK-MDR1 cells, mean ± SEM of two experiments; for inhibition at 30 min, 10 µM: human, MDCK-MDR1 cells (overexpressing P-gp), probe Calcein-AM (2.5 µM), at 10 µM, read-out: P-gp maximum inhibition
T2 construct: expressed in transfected cells; host or cells: MDCK-MDR1 (Madin-Darby Canine Kidney cells, gift of Prof. P. Borst, NKI-AVL)
T2 sequence (P08183 whole entry): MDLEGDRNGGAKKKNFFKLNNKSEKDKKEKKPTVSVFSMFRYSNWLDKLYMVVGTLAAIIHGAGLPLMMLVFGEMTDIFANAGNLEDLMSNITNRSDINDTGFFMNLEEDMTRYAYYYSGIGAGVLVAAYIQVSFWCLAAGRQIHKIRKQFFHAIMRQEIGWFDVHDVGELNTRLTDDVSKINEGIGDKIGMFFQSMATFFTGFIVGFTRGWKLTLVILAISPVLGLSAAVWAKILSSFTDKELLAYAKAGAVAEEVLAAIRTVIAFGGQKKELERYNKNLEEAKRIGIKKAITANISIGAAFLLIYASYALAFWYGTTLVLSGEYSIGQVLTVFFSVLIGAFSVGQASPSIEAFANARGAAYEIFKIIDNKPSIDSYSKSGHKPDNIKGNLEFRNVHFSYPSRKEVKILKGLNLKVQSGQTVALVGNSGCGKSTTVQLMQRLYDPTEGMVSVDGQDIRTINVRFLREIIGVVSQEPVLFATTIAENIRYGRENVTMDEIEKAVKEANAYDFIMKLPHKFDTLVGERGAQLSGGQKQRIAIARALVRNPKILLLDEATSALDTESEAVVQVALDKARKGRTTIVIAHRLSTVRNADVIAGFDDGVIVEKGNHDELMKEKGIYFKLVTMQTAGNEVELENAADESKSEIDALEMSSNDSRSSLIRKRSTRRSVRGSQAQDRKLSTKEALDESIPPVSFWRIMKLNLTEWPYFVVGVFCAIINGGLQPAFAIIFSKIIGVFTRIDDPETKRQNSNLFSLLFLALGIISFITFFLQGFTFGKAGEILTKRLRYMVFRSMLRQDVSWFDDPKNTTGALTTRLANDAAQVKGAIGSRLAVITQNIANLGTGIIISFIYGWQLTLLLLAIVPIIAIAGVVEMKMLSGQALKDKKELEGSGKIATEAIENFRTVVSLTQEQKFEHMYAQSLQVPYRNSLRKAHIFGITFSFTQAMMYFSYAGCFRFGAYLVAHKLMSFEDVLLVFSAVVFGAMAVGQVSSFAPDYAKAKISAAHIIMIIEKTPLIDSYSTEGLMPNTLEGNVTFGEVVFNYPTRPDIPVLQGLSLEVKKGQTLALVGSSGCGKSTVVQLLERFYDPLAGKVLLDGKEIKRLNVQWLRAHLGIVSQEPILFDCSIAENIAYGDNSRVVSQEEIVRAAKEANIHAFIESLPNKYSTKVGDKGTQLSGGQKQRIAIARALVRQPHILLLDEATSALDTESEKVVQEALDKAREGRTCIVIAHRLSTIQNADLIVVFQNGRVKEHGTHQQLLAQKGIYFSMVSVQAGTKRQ
Method in brief: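 Confluent MDCK-MDR1 monolayers preincubated 30 min at 37 °C with compound (1 nM-100 µM), then 2.5 µM Calcein-AM (final) 30 min. After ice-cold PBS washes, fluorescence read (ex 485/em 535 nm); EC50 from % fluorescence increase over untreated basal versus log dose.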

With `COc1cc2c(cc1OC)CN(CCc1ccc(OC(=O)c3ccc(OC)c(OC)c3OC)cc1)CC2` [Compound 14, 4–(2-(6,7-Dimethoxy-3,4-dihydroisoquinolin-2(1H)-yl)ethyl)phenyl 2,3,4-trimethoxybenzoate] the EC50 (BCRP) was 15100 ± 2890 nM and the EC50 (P-gp) was 360 ± 69 nM.

`COc1cc2c(cc1OC)CN(CCc1ccc(NC(=O)c3c(OC)c(OC)cc4ccccc34)cc1)CC2` [Compound 8, N-(4–(2-(6,7-dimethoxy-3,4-dihydroisoquinolin-2(1H)-yl)ethyl)phenyl)-2,3-dimethoxy-1-naphthamide] showed an EC50 (P-gp) of 47.8 ± 9.3 nM and an inhibition at 30 min, 10 µM (P-gp) of 90 to 95%.

For `COc1cc2c(cc1OC)CN(CCc1ccc(NC(=O)c3cccc(OC)c3OC)cc1)CC2` [Compound 5, N-(4–(2-(6,7-dimethoxy-3,4-dihydroisoquinolin-2(1H)-yl)ethyl)phenyl)-2,3-dimethoxybenzamide], the “BCRP, percentage of the effect” value (BCRP) was 41%^d and the EC50 (P-gp) was 260 ± 50 nM.

In the case of `COc1cc2c(cc1OC)CN(CCc1ccc(OC(=O)c3cccc(OC)c3OC)cc1)CC2` [Compound 18, 4–(2-(6,7-Dimethoxy-3,4-dihydroisoquinolin-2(1H)-yl)ethyl)phenyl 2,3-dimethoxybenzoate], the “BCRP, percentage of the effect” value (BCRP) is reported as 44%^d and the EC50 (P-gp) is reported as 340 ± 70 nM.

`COc1cc2c(cc1OC)CN(CCc1ccc(OC(=O)c3c(OC)c(OC)cc4ccccc34)cc1)CC2` [Compound 21, 4–(2-(6,7-Dimethoxy-3,4-dihydroisoquinolin-2(1H)-yl)ethyl)phenyl 2,3-dimethoxy-1-naphthoate] was tested, and the “BCRP, percentage of the effect” value (BCRP) was 43%^d and the EC50 (P-gp) was 100 ± 20 nM.

For `COc1cc2c(cc1OC)CN(CCc1ccc(OC(=O)c3ccccc3OC)cc1)CC2` [Compound 15, 4–(2-(6,7-Dimethoxy-3,4-dihydroisoquinolin-2(1H)-yl)ethyl)phenyl 2-methoxybenzoate], the “BCRP, percentage of the effect” value (BCRP) was 47%^d and the EC50 (P-gp) was 730 ± 140 nM.

In the case of `COc1cc2c(cc1OC)CN(CCc1ccc(NC(=O)c3ccc(OC)c(OC)c3OC)cc1)CC2` [Compound 1, N-(4–(2-(6,7-dimethoxy-3,4-dihydroisoquinolin-2(1H)-yl)ethyl)phenyl)-2,3,4-trimethoxybenzamide], the EC50 (BCRP) is reported as 21200 ± 4200 nM and the EC50 (P-gp) is reported as 530 ± 100 nM.

Work on `COc1cc2c(cc1OC)CN(CCc1ccc(OC(=O)c3c(OC)ccc4ccccc34)cc1)CC2` [Compound 20, 4–(2-(6,7-Dimethoxy-3,4-dihydroisoquinolin-2(1H)-yl)ethyl)phenyl 2-methoxy-1-naphthoate] yielded an EC50 (BCRP) of 7300 ± 1400 nM and an EC50 (P-gp) of 110 ± 20 nM.

With `COc1ccc(C(=O)Nc2ccc(CCN3CCc4cc(OC)c(OC)cc4C3)cc2)c(OC)c1` [Compound 3, N-(4–(2-(6,7-dimethoxy-3,4-dihydroisoquinolin-2(1H)-yl)ethyl)phenyl)-2,4-dimethoxybenzamide] the EC50 (BCRP) was 1000 ± 200 nM, the EC50 (P-gp) was 40.5 ± 8 nM and the inhibition at 30 min, 10 µM (P-gp) was 90 to 95%.

`COc1ccc(C(=O)Oc2ccc(CCN3CCc4cc(OC)c(OC)cc4C3)cc2)c(OC)c1` [Compound 16, 4–(2-(6,7-Dimethoxy-3,4-dihydroisoquinolin-2(1H)-yl)ethyl)phenyl 2,4-dimethoxybenzoate] was tested, and the EC50 (BCRP) was 11000 ± 2000 nM and the EC50 (P-gp) was 100 ± 20 nM.

In the case of `COc1cc2c(cc1OC)CN(CCc1ccc(OC(=O)c3cccc4ccccc34)cc1)CC2` [Compound 19, 4–(2-(6,7-Dimethoxy-3,4-dihydroisoquinolin-2(1H)-yl)ethyl)phenyl 1-naphthoate], the “BCRP, percentage of the effect” value (BCRP) is reported as 35%^d and the EC50 (P-gp) is reported as 840 ± 160 nM.

Source: paper PMC7178819, “6,7-Dimethoxy-2-phenethyl-1,2,3,4-tetrahydroisoquinoline amides and corresponding ester isosteres as multidrug resistance reversers” (Journal of Enzyme Inhibition and Medicinal Chemistry, 2020)
